In PMC12040169 (PLOS Biology, 2025):

test: in vitro; details: human, hela cells, % viability

First: O=C(NCCSCc1ccco1)Nc1ccc(Cl)cc1 [CBK267869]
Second: NCCCNc1ccc(C(=O)Nc2ccc(Cl)cc2)cc1[N+](=O)[O-] [CBK267880]
The viability at 28.5 h, 10 µM of the first is lower: 97.3% for the first, 116% for the second.

Going from `O=C(NC(=S)Nc1cccc(-c2nc3ncccc3o2)c1)c1ccc(-c2cccc([N+](=O)[O-])c2)o1` [CBK267870] to `NS(=O)(=O)c1ccc(NC(=O)c2ccc(COc3ccccc3)o2)cc1` [CBK267915], the viability at 28.5 h, 10 µM rises from 83.4% to 104%.

First: O=C(CSc1nc2ccccc2c2nc3ccccc3n12)Nc1cccc(Cl)c1 [CBK267872]
Second: O=C(CSc1nnc(-c2ccncc2)n1-c1ccccc1)Nc1ccnc2ccccc12 [CBK267900]
The viability at 28.5 h, 10 µM of the first is lower: 94.2% for the first, 101% for the second.

Going from `Cc1ncc([N+](=O)[O-])n1Cc1nnc(S)n1C` [CBK267873] to `CCn1c(COc2ccccc2)nnc1Sc1ccc([N+](=O)[O-])cc1C=O` [CBK267888], the viability at 28.5 h, 10 µM rises from 95.4% to 105%.

Compared with `CCS(=O)(=O)c1nc2ccccc2n1CC(=O)Nc1ccccc1C(=O)OC` [CBK267877], `O=C(CS(=O)(=O)c1ccccc1)Nc1cccc2nsnc12` [CBK267949] is higher in viability at 28.5 h, 10 µM: 90% for the first, 97.4% for the second.

Compared with `Cc1ccccc1CSc1nc2ccc([N+](=O)[O-])cc2[nH]1` [CBK267879], `N#Cc1ccccc1CSc1nc(N)cc(O)n1` [CBK267967] is higher in viability at 28.5 h, 10 µM: 96.2% for the first, 98.3% for the second.

First: COCCCn1c(CCC(=O)O)ccc1-c1ccc(F)cc1 [CBK267886]
Second: COCCCn1c(CCC(=O)O)ccc1-c1cccs1 [CBK267942]
The viability at 28.5 h, 10 µM of the first is lower: 104% for the first, 121% for the second.

Compared with `Cc1cc(OC(C)C(=O)Nc2ccc(S(=O)(=O)Nc3onc(C)c3C)cc2)cc(C)c1Cl` (centres unmarked) [CBK267887], `CC(Oc1ccc(-c2ccccc2)cc1)C(=O)Nc1ccc(S(N)(=O)=O)cc1` (centres unmarked) [CBK267979] is lower in viability at 28.5 h, 10 µM: 98.7% for the first, 87.2% for the second.

Compared with `COc1ccc(S(=O)(=O)N(C)CC(=O)Nc2ccc(C(N)=O)cc2)cc1Cl` [CBK267891], `COc1ccc(S(=O)(=O)N(C)CC(=O)Nc2ccc(Br)cc2F)cc1Cl` [CBK267916] is lower in viability at 28.5 h, 10 µM: 109% for the first, 81.3% for the second.

Compared with `Nc1n[nH]c(SCC(=O)N2CCN(C(c3ccccc3)c3ccccc3)CC2)n1` [CBK267893], `Nc1cc(O)nc(SCC(=O)N2CCN(c3ccccc3)CC2)n1` [CBK267925] is lower in viability at 28.5 h, 10 µM: 86.5% for the first, 86% for the second.

Going from `COc1ccc(S(=O)(=O)N(C)CC(=O)N2CCOCC2)cc1C` [CBK267898] to `CCN1CCN(C(=O)CN(CC)S(=O)(=O)c2ccc3ccccc3c2)CC1` [CBK267913], the viability at 28.5 h, 10 µM rises from 95.8% to 101%.

Compared with `S=C1NCN(Cc2ccc3c(c2)OCO3)CN1` [CBK267899], `c1ccc2oc(NC3=NCN(Cc4ccc5c(c4)OCO5)CN3)nc2c1` [CBK267964] is higher in viability at 28.5 h, 10 µM: 87.1% for the first, 95.1% for the second.

First: O=C(CNC(=O)C1CCCCC1)NNC(=O)c1sc2ccccc2c1Cl [CBK267903]
Second: O=C(CN1CCCCC1)Nc1sc2c(c1C(=O)Nc1ccccc1)CCCC2 [CBK267974]
The viability at 28.5 h, 10 µM of the first is lower: 98.8% for the first, 104% for the second.

Compared with `COc1ccc(NC(=O)CSc2nc(N)cc(O)n2)c([N+](=O)[O-])c1` [CBK267904], `CCn1c(SCC(=O)Nc2cccc([N+](=O)[O-])c2)nnc1-c1cc(Br)ccc1O` [CBK267980] is lower in viability at 28.5 h, 10 µM: 101% for the first, 86% for the second.

First: O=C(O)CCCC(=O)Nc1cc(C(=O)O)ccc1Cl [CBK267907]
Second: Cc1cc(C(=O)O)ccc1NC(=O)CCCC(=O)O [CBK267917]
The viability at 28.5 h, 10 µM of the first is higher: 116% for the first, 90.8% for the second.

Compared with `CCN(CC(=O)Nc1ccc(OC)c(Cl)c1)S(=O)(=O)c1ccc2ccccc2c1` [CBK267910], `Cc1ccc([N+](=O)[O-])cc1NC(=O)CN(Cc1ccc(Cl)cc1)S(C)(=O)=O` [CBK267981] is lower in viability at 28.5 h, 10 µM: 92.9% for the first, 87.8% for the second.

First: CC(C)c1nnc(SCc2ccc(CSc3nnc(C(C)C)n3N)cc2)n1N [CBK267911]
Second: Cc1ccc(CNC(=O)CSc2nc(N)n[nH]2)cc1 [CBK267914]
The viability at 28.5 h, 10 µM of the first is lower: 101% for the first, 103% for the second.

First: CCn1cc(C(=O)O)c(=O)c2cc(F)c(N3CCN(C(=S)Nc4ccc(F)c(Cl)c4)CC3)cc21 [CBK267921]
Second: CCn1cc(C(=O)O)c(=O)c2cnc(N3CCN(C(=S)Nc4ccc5c(c4)OCO5)CC3)nc21 [CBK267930]
The viability at 28.5 h, 10 µM of the first is higher: 97.5% for the first, 90.6% for the second.

First: CCOc1cc(/C=C(/C#N)c2nc3ccccc3[nH]2)ccc1OCc1ccc(C(=O)O)o1 [CBK267923]
Second: CCOc1ccc(N(Cc2cc3cc(C)ccc3nc2O)S(=O)(=O)c2ccccc2)cc1 [CBK267924]
The viability at 28.5 h, 10 µM of the first is lower: 88.9% for the first, 120% for the second.

First: O=C(O)Cn1nnc(-c2ccc(C(=O)O)cc2)n1 [CBK267926]
Second: O=C1CC(C(=O)O)SC(NNC(=O)c2ccccc2)=N1 (centres unmarked) [CBK267944]
The viability at 28.5 h, 10 µM of the first is lower: 85% for the first, 91.2% for the second.

Going from `N#C/C(=C\c1ccc(N2CCN(c3ccc(F)cc3)CC2)c([N+](=O)[O-])c1)c1nn(-c2ccccc2)c(N)c1C#N` [CBK267927] to `COc1ccccc1C(=O)Nc1ccccc1N1CCN(C)CC1` [CBK267938], the viability at 28.5 h, 10 µM falls from 95.7% to 91.8%.

Compared with `CCn1cc(C(=O)O)c(=O)c2cnc(N3CCN(C(=S)Nc4cc5oc6ccccc6c5cc4OC)CC3)nc21` [CBK267929], `COC(=O)c1ccsc1NC(=O)CN1CCN(Cc2ccc3c(c2)OCO3)CC1` [CBK267940] is lower in viability at 28.5 h, 10 µM: 101% for the first, 97.6% for the second.

Going from `CC(=O)Nc1ccc(S(=O)(=O)NC2(C(F)(F)F)N=C(c3ccccc3)NC2=O)cc1` (centres unmarked) [CBK267932] to `CN(C)S(=O)(=O)N(CC(=O)Nc1cccnc1)c1ccccc1` [CBK267958], the viability at 28.5 h, 10 µM rises from 113% to 119%.

Going from `CCc1cccc(C)c1NC(=O)CN(c1ccc(Br)c(C)c1)S(C)(=O)=O` [CBK267935] to `Cc1cc(OCCCC(=O)Nc2cccc([N+](=O)[O-])c2)cc(C)c1Cl` [CBK267978], the viability at 28.5 h, 10 µM falls from 102% to 97.8%.

Compared with `O=C(CSc1ccc(Cl)cc1)Nc1cccc2nsnc12` [CBK267936], `O=C(NCCOCc1ccc(Cl)cc1)c1cc(-n2cnnc2)ccc1Cl` [CBK267939] is higher in viability at 28.5 h, 10 µM: 90.8% for the first, 101% for the second.

First: CCCc1oc(C(=O)O)cc1CN(CC)CC [CBK267943C]
Second: CC(C(=O)O)N(c1ccc(Cl)cc1)S(C)(=O)=O (centres unmarked) [CBK267945]
The viability at 28.5 h, 10 µM of the first is lower: 92.1% for the first, 111% for the second.

Going from `O=C(O)C1CCCCC1C(=O)Nc1ccc(S(=O)(=O)N2CCCCC2)cc1` (centres unmarked) [CBK267950] to `O=C(NCCCN1CCCC1)Nc1ccccc1[N+](=O)[O-]` [CBK267959], the viability at 28.5 h, 10 µM falls from 109% to 97%.

Compared with `O=c1c2ccccc2[nH]c(=S)n1CCCN1CCC(Cc2ccccc2)CC1` [CBK267952], `S=C(Nc1ccccc1)N(CCN1CCOCC1)Cc1cccc(Cl)c1` [CBK267975] is higher in viability at 28.5 h, 10 µM: 86.2% for the first, 103% for the second.

Compared with `OC(Cn1ccc2ccccc21)Cn1c(Cc2ccccc2)nc2ccccc21` (centres unmarked) [CBK267954], `Nc1nonc1-c1nc2ccccc2n1Cc1cc2c(cc1Br)OCO2` [CBK267961] is higher in viability at 28.5 h, 10 µM: 97.7% for the first, 105% for the second.

First: CCOc1ccc(CNc2ccc(S(N)(=O)=O)cc2)cc1 [CBK267962]
Second: CS(=O)(=O)N(CC(=O)NCc1ccccn1)Cc1ccc(Cl)cc1 [CBK267982]
The viability at 28.5 h, 10 µM of the first is lower: 89.3% for the first, 94.6% for the second.

Going from `N#Cc1c(NC(=O)CN2CCN(Cc3ccccc3)CC2)sc2c1CCCC2` [CBK267969] to `COc1cc(/C=C/c2[nH]c(=O)[nH]c(=O)c2[N+](=O)[O-])cc(Br)c1OCC(=O)O` [CBK267977], the viability at 28.5 h, 10 µM falls from 99.6% to 91.5%.
